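Method: 48-hour compound exposure of cells in 96-well plates, five concentrations, linear interpolation of endpoints. GI50: concentration for 50% inhibition of growth. TGI denotes the concentration required for complete inhibition of growth.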
Legend:
Assay in all cases: inhibition of tumour cell growth, NCI panel, 48 h
SK-MEL-2 melanoma = tested on: SK-MEL-2 melanoma
SR leukemia = tested on: SR leukemia
HOP-62 NSCLC = tested on: HOP-62 NSCLC
K-562 leukemia = tested on: K-562 leukemia
UACC-62 melanoma = tested on: UACC-62 melanoma
HL-60(TB) leukemia = tested on: HL-60(TB) leukemia
SK-MEL-5 melanoma = tested on: SK-MEL-5 melanoma
RPMI-8226 leukemia = tested on: RPMI-8226 leukemia
LOX IMVI melanoma = tested on: LOX IMVI melanoma
NCI-H460 lung = tested on: NCI-H460 lung
A549 NSCLC = tested on: A549 NSCLC
OVCAR-8 ovarian = tested on: OVCAR-8 ovarian
HS 578T breast = tested on: HS 578T breast
PC-3 prostate = tested on: PC-3 prostate
MCF7 breast = tested on: MCF7 breast
MDA-MB-435 = tested on: MDA-MB-435
BT-549 breast = tested on: BT-549 breast

Work on `O=c1cc(-c2ccc3c(c2)OCO3)[nH]c2cc3c(cc12)OCO3` yielded a TGI (SK-MEL-2 melanoma) of over 100 µM, a TGI (SR leukemia) of 52.1 µM and a TGI (HOP-62 NSCLC) of 63 µM. It also gave a TGI (K-562 leukemia) of over 100 µM, a TGI (UACC-62 melanoma) of over 100 µM and a TGI (HL-60(TB) leukemia) of 66.6 µM. For the same compound, the GI50 (SK-MEL-5 melanoma) was 25.4 µM, the TGI (SK-MEL-5 melanoma) was over 100 µM and the TGI (RPMI-8226 leukemia) was over 100 µM. For the same compound, the TGI (LOX IMVI melanoma) was over 100 µM, the TGI (NCI-H460 lung) was over 100 µM and the TGI (A549 NSCLC) was over 100 µM. It also gave a TGI (OVCAR-8 ovarian) of 78.1 µM.
In the case of `COC(=O)CC(C)(NS(=O)c1ccc(C)cc1)c1ccccc1` (configuration not stated), the TGI (SK-MEL-2 melanoma) is reported as over 100 µM, the TGI (SR leukemia) is reported as over 100 µM and the TGI (HOP-62 NSCLC) is reported as over 100 µM. For the same compound, the TGI (HS 578T breast) was over 100 µM, the TGI (K-562 leukemia) was over 100 µM and the TGI (UACC-62 melanoma) was over 100 µM. For the same compound, the TGI (HL-60(TB) leukemia) was over 100 µM, the TGI (PC-3 prostate) was over 100 µM and the TGI (MCF7 breast) was over 100 µM. For the same compound, the TGI (SK-MEL-5 melanoma) was over 100 µM, the TGI (MDA-MB-435) was over 100 µM and the TGI (RPMI-8226 leukemia) was over 100 µM. It also gave a TGI (LOX IMVI melanoma) of over 100 µM, a TGI (NCI-H460 lung) of over 100 µM and a TGI (A549 NSCLC) of over 100 µM.
`C=C1c2nc3ccccc3n2C=C(c2ccc(OC)cc2)N1c1ccc(OC)cc1` was tested, and the TGI (SK-MEL-2 melanoma) was over 100 µM, the TGI (SR leukemia) was over 100 µM and the TGI (K-562 leukemia) was over 100 µM. The TGI (UACC-62 melanoma) was 51.8 µM, the TGI (HL-60(TB) leukemia) was over 100 µM and the TGI (PC-3 prostate) was over 100 µM. It also gave a TGI (MCF7 breast) of over 100 µM, a TGI (SK-MEL-5 melanoma) of 35.1 µM and a TGI (MDA-MB-435) of over 100 µM. The TGI (RPMI-8226 leukemia) was over 100 µM, the TGI (BT-549 breast) was 39.8 µM and the TGI (LOX IMVI melanoma) was over 100 µM. For the same compound, the TGI (NCI-H460 lung) was over 100 µM, the TGI (A549 NSCLC) was over 100 µM and the TGI (OVCAR-8 ovarian) was 24.4 µM.
Work on `CCOC(=O)/C(=C/c1ccc(OC)cc1)N(CC)CC` yielded a TGI (SK-MEL-2 melanoma) of over 100 µM, a TGI (SR leukemia) of over 100 µM and a TGI (HOP-62 NSCLC) of over 100 µM. It also gave a TGI (K-562 leukemia) of over 100 µM, a TGI (UACC-62 melanoma) of over 100 µM and a TGI (HL-60(TB) leukemia) of over 100 µM. The TGI (SK-MEL-5 melanoma) was over 100 µM, the TGI (RPMI-8226 leukemia) was over 100 µM and the TGI (LOX IMVI melanoma) was over 100 µM. For the same compound, the TGI (NCI-H460 lung) was over 100 µM, the TGI (A549 NSCLC) was over 100 µM and the TGI (OVCAR-8 ovarian) was over 100 µM.
Work on `Cc1ccc(Nc2nc(NNC(=O)Cc3ccccc3)nc(NNC(=O)c3ccncc3)n2)cc1` yielded a TGI (SR leukemia) of over 10 µM, a TGI (HOP-62 NSCLC) of over 10 µM and a TGI (HS 578T breast) of over 10 µM. It also gave a TGI (K-562 leukemia) of over 10 µM, a TGI (UACC-62 melanoma) of over 10 µM and a TGI (HL-60(TB) leukemia) of over 10 µM. The TGI (MCF7 breast) was over 10 µM, the TGI (SK-MEL-5 melanoma) was over 10 µM and the TGI (RPMI-8226 leukemia) was over 10 µM. For the same compound, the TGI (BT-549 breast) was over 10 µM, the TGI (LOX IMVI melanoma) was over 10 µM and the TGI (NCI-H460 lung) was over 10 µM. The TGI (A549 NSCLC) was over 10 µM and the TGI (OVCAR-8 ovarian) was over 10 µM.
With `Cc1cn(C2OC(CO[Si](C)(C)C(C)(C)C)C(N(C)O[Si](C)(C)C(C)(C)C)C2[Se]c2ccccc2)c(=O)[nH]c1=O` (configuration not stated) the TGI (SK-MEL-2 melanoma) was 34 µM, the TGI (SR leukemia) was over 100 µM and the TGI (HOP-62 NSCLC) was 43.1 µM. The TGI (HS 578T breast) was 7.58 µM, the TGI (K-562 leukemia) was over 100 µM and the TGI (UACC-62 melanoma) was 42.4 µM. It also gave a TGI (HL-60(TB) leukemia) of over 100 µM, a TGI (PC-3 prostate) of 34 µM and a TGI (MCF7 breast) of 25.4 µM. For the same compound, the TGI (SK-MEL-5 melanoma) was 53.7 µM, the TGI (MDA-MB-435) was 21 µM and the TGI (RPMI-8226 leukemia) was over 100 µM. It also gave a TGI (LOX IMVI melanoma) of 10.2 µM, a TGI (A549 NSCLC) of 49.5 µM and a TGI (OVCAR-8 ovarian) of 24.6 µM.
`CCNC(=O)c1ccc(C)c(N=NN(C)C)c1` gave a TGI (SK-MEL-2 melanoma) of over 100 µM, a TGI (HOP-62 NSCLC) of over 100 µM and a TGI (UACC-62 melanoma) of over 100 µM. The TGI (SK-MEL-5 melanoma) was over 100 µM, the TGI (LOX IMVI melanoma) was over 100 µM and the TGI (NCI-H460 lung) was over 100 µM. The TGI (A549 NSCLC) was over 100 µM and the TGI (OVCAR-8 ovarian) was over 100 µM.
In the case of `CNC(=O)NCCCC(NC(C)=O)C(=O)NCc1ccccc1` (configuration not stated), the TGI (SK-MEL-2 melanoma) is reported as over 100 µM, the TGI (HOP-62 NSCLC) is reported as over 100 µM and the TGI (K-562 leukemia) is reported as over 100 µM. The TGI (UACC-62 melanoma) was over 100 µM, the TGI (SK-MEL-5 melanoma) was over 100 µM and the TGI (RPMI-8226 leukemia) was over 100 µM. The TGI (LOX IMVI melanoma) was over 100 µM, the TGI (NCI-H460 lung) was over 100 µM and the TGI (A549 NSCLC) was over 100 µM. It also gave a TGI (OVCAR-8 ovarian) of over 100 µM.
